# Assay results from ChEMBL document CHEMBL1133389, “Antihypertensive activity of substituted 2,3,8,8a-tetrahydro-7H-oxazolo[3,2-a]pyridinedicarboxylate enantiomers” (Bioorg Med Chem Lett, 2000).
# Calls of active or inactive are those of the source. No cut-off for these calls is given here.
# How the values were obtained:
# Type in all cases: functional, organism-based
# Parameters in all cases: dose 50 mg/kg
# [1] = system: Rattus norvegicus; experiment: Tested for antihypertensive activity at the dose of 50 mg/kg in spontaneously hypertensive rats; active
# [2] = system: Rattus norvegicus; experiment: Tested for relative acute toxicity at the dose of 50 mg/kg after intraperitoneal administration in spontaneously hypertensive rats; active
# [3] = system: Rattus norvegicus; experiment: Tested for antihypertensive activity at the dose of 50 mg/kg in spontaneously hypertensive rats; inactive
# [4] = system: Rattus norvegicus; experiment: Tested for relative acute toxicity at the dose of 50 mg/kg after intraperitoneal administration in spontaneously hypertensive rats; inactive
# [5] = system: Rattus norvegicus; experiment: Tested for reflex tachycardia at the dose of 50 mg/kg when administered intraperitoneally in spontaneously hypertensive rats; active
compound,measurement,setting,value
CCOC(=O)[C@H]1[C@H](c2cccc([N+](=O)[O-])c2)C(C(=O)OC)=C(C)N2CCO[C@@]12C,Activity,[1],Active
CCOC(=O)[C@H]1[C@H](c2cccc([N+](=O)[O-])c2)C(C(=O)OC)=C(C)N2C[C@H](C)O[C@@]12C,Activity,[1],Active
COC(=O)C1=C(C)N2C[C@@H](C)O[C@]2(C)[C@H](C(=O)OC)[C@H]1c1cccc(Cl)c1,Activity,[2],Active
CCOC(=O)[C@@H]1[C@@H](c2cccc([N+](=O)[O-])c2)C(C(=O)OC)=C(C)N2C[C@@H](C)O[C@]12C,Activity,[3],inactive
COC(=O)C1=C(C)N2C[C@H](C)O[C@@]2(C)[C@@H](C(=O)OC)[C@@H]1c1cccc(Cl)c1,Activity,[4],inactive
COC(=O)C1=C(C)NC(C)=C(C(=O)OC)C1c1ccccc1[N+](=O)[O-],Activity,[5],Active
